From patent US20100009970A1, “COMPOSITIONS AND METHODS FOR TREATMENT OF VIRAL DISEASES” (Combinatorx (Singapore) Pte. Ltd., priority 2008, published 2010)
Where a name gives a salt, the structure may show the parent alone.

Test system: Huh7 cells expressing a subgenomic RNA replicon of Con1 (genotype 1b) sequence origin
Test: microbe, parasite or virus in culture
Details: Hepatitis C virus, Huh-7

Compared with `CC[C@H]1CN2CCc3cc(OC)c(OC)cc3[C@@H]2C[C@@H]1C[C@H]1NCCc2cc(OC)c(OC)cc21` [Emetine (e.g., dihydrochloride hydrate), Emetine, reference compound], `COC(=O)[C@H]1[C@H]2C[C@@H]3c4[nH]c5cc(OC)ccc5c4CCN3C[C@H]2C[C@@H](OC(=O)/C=C/c2cc(OC)c(OC)c(OC)c2)[C@@H]1OC` [Rescinnamine, reference compound] is 260-fold higher in IC50: 0.03 µM for the first, 7.88 µM for the second.

First: COc1cc(C=O)ccc1O [Vanillin (e.g., acetate), Vanillin]
Second: COc1ccc(O)cc1 [Mequinol, reference compound]
The IC50 of the first is 5-fold lower: 3.73 µM for the first, 18.7 µM for the second.

Going from `CN/C(=N\c1ccc(C2=NNC(=O)CC2C)cc1)NC#N` (centres unmarked) [Siguazodan, reference compound] to `CCCCC1C(=O)NN(c2ccccc2)C1=O` (centres unmarked) [Mofebutazone, mofebutazone, reference compound], the IC50 rises from 2.2 µM to 14.6 µM (6.6-fold). The first is the more potent here.

Going from `C[C@@H]1C[C@@H]([C@H](O)CC2CC(=O)NC(=O)C2)C(=O)[C@@H](C)C1` [Cycloheximide, reference compound] to `CCc1cn([C@H]2C[C@H](O)[C@@H](CO)O2)c(=O)[nH]c1=O` [Edoxudine, edoxudine, reference compound], the IC50 rises from 0.184 µM to 1.95 µM (11-fold).

`CC(CN(C)C)CN1c2ccccc2CCc2ccccc21` (centres unmarked) [Trimipramine (e.g., maleate), Trimipramine, reference compound] and `CN(C)CCCN1c2ccccc2Sc2ccccc21` [Promazine (e.g., hydrochloride), promazine, reference compound] are within 1.5-fold of each other in IC50: 15.6 µM for the first, 16.1 µM for the second.

`CCN(CC)CCCC(C)Nc1c2ccc(Cl)cc2nc2ccc(OC)cc12` (centres unmarked) [Quinacrine, reference compound] and `CCN(CC)CCCC(C)Nc1ccnc2cc(Cl)ccc12` (centres unmarked) [Chloroquine (e.g., phosphate), Chloroquine, reference compound] are within 1.5-fold of each other in IC50: 4.17 µM for the first, 4.78 µM for the second.

First: CC(C)N1CCN(c2ccc(OCC3COC(Cn4cncn4)(c4ccc(Cl)cc4Cl)O3)cc2)CC1 (centres unmarked) [Terconazole, reference compound]
Second: Cc1cccc(CN2CCN(C(c3ccccc3)c3ccc(Cl)cc3)CC2)c1 (centres unmarked) [Meclizine, meclizine, reference compound]
The IC50 of the first is 5.7-fold lower: 2.55 µM for the first, 14.6 µM for the second.

Going from `CC(C=NNC(=N)N)=NNC(=N)N` [Methylglyoxal bis(guanylhydrazone) dihydrochloride hydrate, reference compound] to `O=C(CCCCCCC(=O)NO)NO` [Suberohydroxamic acid, suberohydroxamic acid, reference compound], the IC50 falls from 10.8 µM to 4.02 µM (2.7-fold).

`N[C@@H](Cc1ccc(N(CCCl)CCCl)cc1)C(=O)O` [Melphalan, reference compound] and `CCCCOc1ccc(CC(=O)NO)cc1` [Bufexamac, bufexamac, reference compound] are within 1.5-fold of each other in IC50: 5.94 µM for the first, 8.29 µM for the second.

Going from `COC1=CC(=O)C[C@@H](C)[C@]12Oc1c(Cl)c(OC)cc(OC)c1C2=O` [Griseofulvin (e.g., microcrystalline), Griseofulvin, reference compound] to `COc1cc2c(cc1OC)-c1c/c(=N\c3c(C)cc(C)cc3C)n(C)c(=O)n1CC2` [Trequinsin (e.g., hydrochloride), Trequinsin, reference compound], the IC50 falls from 11.5 µM to 2.93 µM (3.9-fold). The second is the more potent here.

First: OC(CCCN1CCCCC1)(c1ccccc1)c1ccccc1 [Diphenidol (e.g., hydrochloride), Diphenidol, reference compound]
Second: CCOc1cc(CC(=O)N[C@@H](CC(C)C)c2ccccc2N2CCCCC2)ccc1C(=O)O [Repaglinide, reference compound]
The IC50 of the first is 2.1-fold higher: 25.4 µM for the first, 12.2 µM for the second.

Compared with `C/C=C(/C)C(=O)O[C@H]1C(C)=C2[C@H]([C@@H]1OC(=O)CCCCCCC)[C@@](C)(OC(C)=O)C[C@H](OC(=O)CCC)[C@@]1(O)[C@H]2OC(=O)[C@@]1(C)O` [Thapsigargin, reference compound], `CO[C@H]1/C=C/O[C@@]2(C)Oc3c(C)c(O)c4c(c3C2=O)C2=NC3(CCN(CC(C)C)CC3)NC2=C(NC(=O)/C(C)=C\C=C\[C@H](C)[C@H](O)[C@@H](C)[C@@H](O)[C@@H](C)[C@H](OC(C)=O)[C@@H]1C)C4=O` [Rifabutin, reference compound] is 1500-fold higher in IC50: 0.0113 µM for the first, 17.2 µM for the second.

Compared with `COCCCC/C(=N\OCCN)c1ccc(C(F)(F)F)cc1` [Fluvoxamine (e.g., maleate), Fluvoxamine, reference compound], `CCCCOc1cc(C(=O)OCCN(CC)CC)ccc1N` [Benoxinate (e.g., hydrochloride), benoxinate, reference compound] is 7.9-fold lower in IC50: 23.8 µM for the first, 3.02 µM for the second. The second is the more potent here.

`N[C@H](Cc1cc(I)c(Oc2cc(I)c(O)c(I)c2)c(I)c1)C(=O)O` [Dextrothyroxine (e.g., sodium), dextrothyroxine, reference compound] and `N=C(NCc1ccccc1)NC(=O)c1nc(Cl)c(N)nc1N` [Benzamil (e.g., HCl), benzamil, reference compound] are within 1.5-fold of each other in IC50: 5 µM for the first, 4.73 µM for the second.

Going from `C=C(NC(=O)C(=C)NC(=O)c1csc(C2=N[C@@H]3c4csc(n4)[C@H]4NC(=O)c5csc(n5)[C@H]([C@](C)(O)[C@@H](C)O)NC(=O)[C@H]5CSC(=N5)/C(=C/C)NC(=O)[C@H]([C@@H](C)O)NC(=O)c5csc(n5)[C@]3(CC2)NC(=O)[C@H](C)NC(=O)C(=C)NC(=O)[C@H](C)NC(=O)[C@H]([C@@H](C)CC)N[C@@H]2C=Cc3c([C@H](C)O)cc(nc3[C@H]2O)C(=O)O[C@@H]4C)n1)C(N)=O` [Thiostrepton, reference compound] to `CO[C@H]1/C=C/O[C@@]2(C)Oc3c(C)c(O)c4c(O)c(c5c(nc6cc(C)ccn65)c4c3C2=O)NC(=O)/C(C)=C\C=C\[C@H](C)[C@H](O)[C@@H](C)[C@@H](O)[C@@H](C)[C@H](OC(C)=O)[C@@H]1C` [Rifaximin, reference compound], the IC50 rises from 3.84 µM to 19.4 µM (5.1-fold). The first is the more potent here.

Compared with `CC(=O)[C@H]1CC[C@H]2[C@@H]3C=CC4=CC(=O)CC[C@@]4(C)[C@@H]3CC[C@]12C` [Dydrogesterone, reference compound], `C[C@H]1CC(=O)C[C@@H]2CC[C@H]3[C@@H]4CC[C@H](O)[C@@]4(C)CC[C@@H]3[C@]21C` [Mesterolone, mesterolone, reference compound] is 1.9-fold higher in IC50: 2.75 µM for the first, 5.18 µM for the second.

Compared with `N=c1ccn2c(n1)O[C@H]1[C@H](O)[C@@H](CO)O[C@H]12` [Cyclocytidine (e.g., hydrochloride), Cyclocytidine, reference compound], `O=c1[nH]c(=O)n([C@H]2C[C@H](O)[C@@H](CO)O2)cc1C(F)(F)F` [Trifluridine, trifluridine, reference compound] is 2.1-fold higher in IC50: 0.183 µM for the first, 0.38 µM for the second.

Compared with `Cc1ccc(O)c([C@H](CCN(C(C)C)C(C)C)c2ccccc2)c1` [Tolterodine (e.g., tartrate), Tolterodine, reference compound], `Oc1ccc(OCc2ccccc2)cc1` [Monobenzone, reference compound] is 17-fold lower in IC50: 27.2 µM for the first, 1.59 µM for the second.

Going from `CN(C)C/C=C(/c1ccc(Br)cc1)c1cccnc1` [Zimelidine (e.g., dihydrochloride), Zimelidine, reference compound] to `CN(C)CCCOc1nn(Cc2ccccc2)c2ccccc12` [Benzydamine (e.g., hydrochloride), benzydamine, reference compound], the IC50 falls from 15.1 µM to 9 µM (1.7-fold).

Compared with `C#C[C@]1(O)CC[C@H]2[C@@H]3CCc4cc(OC5CCCC5)ccc4[C@H]3CC[C@@]21C` [Quinestrol, reference compound], `C[C@]12CC[C@@H]3c4ccc(O)cc4C[C@@H](CCCCCCCCC[S+]([O-])CCCC(F)(F)C(F)(F)F)[C@H]3[C@@H]1CC[C@@H]2O` (some centres unmarked) [Fulvestrant, reference compound] is 1.8-fold lower in IC50: 5.43 µM for the first, 3.05 µM for the second.

Going from `CN1[C@@H]2CC[C@H]1C[C@@H](OC1c3ccccc3CCc3ccccc31)C2` [Deptropine (e.g., citrate), deptropine, reference compound] to `CC(C(O)c1ccc(O)cc1)N1CCC(Cc2ccccc2)CC1` (centres unmarked) [Ifenprodil (e.g., tartrate), Ifenprodil, reference compound], the IC50 falls from 11.1 µM to 4.68 µM (2.4-fold).

First: CCC[C@H](NC(=O)[C@@H]1[C@H]2CCC[C@H]2CN1C(=O)[C@@H](NC(=O)[C@@H](NC(=O)c1cnccn1)C1CCCCC1)C(C)(C)C)C(=O)C(=O)NC1CC1 [Telaprevir (VX-950), vx-950, reference compound]
Second: CCc1c2c(nc3ccc(OC(=O)N4CCC(N5CCCCC5)CC4)cc13)-c1cc3c(c(=O)n1C2)COC(=O)[C@]3(O)CC [Irinotecan (e.g., hydrochloride), irinotecan (CPT-11), reference compound]
The IC50 of the first is 2.9-fold lower: 0.529 µM for the first, 1.56 µM for the second. The first is the more potent here.

First: Nc1nc[nH]n1 [Amitrole]
Second: CCCCOc1cc(C(=O)NCCN(CC)CC)c2ccccc2n1 [Dibucaine (e.g., hydrochloride), Dibucaine, reference compound]
The IC50 of the first is 2.2-fold higher: 14.6 µM for the first, 6.68 µM for the second.

Compared with `CC1(C)O[C@@H]2C[C@H]3[C@@H]4CCC5=CC(=O)CC[C@]5(C)[C@@]4(F)[C@@H](O)C[C@]3(C)[C@]2(C(=O)CCl)O1` [Halcinonide, halcinonide, reference compound], `CC[C@@H](C(=O)O)[C@@H]1O[C@@H]([C@@H](C)[C@H](O)[C@H](C)C(=O)[C@H](CC)[C@H]2O[C@]3(C=C[C@@H](O)[C@]4(CC[C@@](C)([C@H]5CC[C@](O)(CC)[C@H](C)O5)O4)O3)[C@H](C)C[C@@H]2C)[C@@H](C)C[C@@H]1C` [Narasin, reference compound] is 99-fold lower in IC50: 17.4 µM for the first, 0.176 µM for the second. The second is the more potent here.

`COc1ccc2cc1Oc1ccc(cc1)C[C@H]1c3c(cc4c(c3Oc3cc5c(cc3OC)CCN(C)[C@@H]5C2)OCO4)CCN1C` [Cepharanthine, reference compound] and `COc1cc(C(=O)OCCCN2CCCN(CCCOC(=O)c3cc(OC)c(OC)c(OC)c3)CC2)cc(OC)c1OC` [Dilazep (e.g., dihydrochloride), Dilazep, reference compound] are within 1.5-fold of each other in IC50: 19.5 µM for the first, 13.9 µM for the second.

Going from `O=C1c2ccccc2-[n+]2ccc3c([nH]c4ccccc43)c21` [Fascaplysin, reference compound] to `C/C=C/C/C=C/CCC(=O)[C@H]1O[C@H]1C(N)=O` [Cerulenin, reference compound], the IC50 rises from 0.444 µM to 16.2 µM (36-fold).

Same assay, conditions: Hepatitis C virus, Huh-7, read-out: Max Effect@CC30 (inhibition)

`COc1cccc(Oc2ccc(Br)cc2CN(C)C)c1` [Compound 38, (5-bromo-2-(3-methoxyphenoxy)phenyl)-N,N-dimethylmethanamine] gave an Emax of 42%.
